# Laboratory results: US20030109504A1, “Treatment of movement disorders with metabotropic glutamate receptors antagonist” (priority 2000, published 2003)
# “Also recorded” adds a separate entry of the source.
# Key:
# [1] = system: reserpine-treated rat model of Parkinson's disease; assay: Locomotion (mobile counts) in reserpine-treated rat model of Parkinson's disease, antagonist combined with chloro-APB or quinpirole; assay type: in vivo; conditions: for total mobile counts: antagonist 1 mg/kg plus chloro-APB 0.2 mg/kg, versus vehicle plus chloro-APB (FIG. 1)
# Description: The effect of metabotropic glutamate receptor antagonists on the anti-parkinsonian effects of chloro-APB (0.2 mg/kg) or quinpirole (0.1 mg/kg) was assessed in a reserpine-treated rat model of Parkinson's disease.
# Male Sprague-Dawley rats were split into two groups A and B. Rats in both groups were rendered parkinsonian by subcutaneous administration of reserpine (3 mg/kg) for 18 hours.
# After the 18 hours Group A were treated with either chloro-APB (0.2 mg/kg) or quinpirole (0.1 mg/kg) and then subdivided into groups A1, A2 and A3. These subgroups were additionally administered the following selective metabotropic glutamate receptor antagonists (1 mg/kg):
# A1: (RS)-1-Aminoindan-1,5-dicarboxylic acid (AIDA—Group I metabotropic glutamate receptor antagonist);
# A2: (2S)-alpha-Ethylglutamic acid (EGLU—Group II metabotropic glutamate receptor antagonist); and
# A3: (RS)-alpha-Methylserine-O-phosphate (MSOP—Group III metabotropic glutamate receptor antagonist).
# Group B were treated with chloro-APB (0.2 mg/kg) and vehicle for the antagonists only.
# The locomotion of the rats in Groups A and B was measured over a one hour period using Benwick locomotor monitors. These locomotion monitors consist of a visually-shielded open-field arena, the perimeter of which is surrounded by a series of infra-red beams arranged at 5 cm intervals. PC-based software (Amlogger) assesses the number of beams broken. The number of beams broken as part of a locomotor movement (mobile counts) or the number of beam breaks while the animal is not locomoting (static counts) were measured. In addition, the system assesses the time for which animals are mobile or static.
# [2] = system: MPTP-lesioned marmoset model of Parkinson's disease; assay: Mobility, locomotor activity and dyskinesia in MPTP-lesioned marmoset model of Parkinson's disease, combination with L-DOPA; assay type: in vivo, Marmosets (Callithrix jacchus); conditions: MPTP-lesioned marmosets; for L-DOPA-induced mobility and locomotor activity (reversal of parkinsonism): L-DOPA 8 mg/kg with or without SIB-1893 10 mg/kg (FIG. 3)
# Description: The effect of the mGluR group I (selective for mGlu5) receptor antagonist SIB-1893 in combination with L-DOPA was assessed in the MPTP-lesioned marmoset model of Parkinson's disease. The ability of the traditional anti-parkinsonian agent L-DOPA to alleviate symptoms was compared with the combined therapy.
# Marmosets (Callithrix jacchus) (bred in a closed colony at the University of Manchester) are rendered parkinsonian by subcutaneous injection of 2 mg kg^−1 MPTP for 5 consecutive days. The marmosets are allowed to recover for a minimum of 10 weeks until their parkinsonism becomes stable. The degree of activity and disability before and after MPTP treatment is assessed using a combination of scales as described below. Animals are then treated with L-DOPA for at least 3 weeks to prime them to elicit dyskinesia.
# 1) Activity—a quantitative assessment using computer-based activity monitors was obtained every 5 minutes for the duration of the experiment. p1 2) Parkinsonian disability—non-parametric measures based on the following scales:
# Mobility score: 0=no movement, 1=movement of head on the floor of the cage, 2=movement of limbs, but no locomotion, on the floor of the cage, 3=movement of head or trunk on wall of cage or perch, 4=movement of limbs, but no locomotion, on wall of cage or perch, 5=walking around floor of cage or eating from hopper on floor, 6=hopping on floor of cage, 7=climbing onto wall of cage or perch, 8=climbing up and down the walls of the cage or along perch, 9=running, jumping, climbing between cage walls/perch/roof, uses limbs through a wide range of motion and activity.
# Dyskinesia score: 0Absent, 1=Mild, fleeting, 2=Moderate, not interfering with normal activity, 3=Marked, at times interfering with normal activity, 4=Severe, continuous, replacing normal activity.
# The behavioural tests were assessed every 30 minutes for 4 hours, by post hoc analysis of video-recordings by an observer blinded to the treatment.
# The treatments were randomised such that on each day all six marmosets received one of the treatments. […]
# [3] = reserpine-treated Sprague-Dawley rats, one hour
Compound,"total mobile counts [1, 3]",L-DOPA-induced mobility and locomotor activity (reversal of parkinsonism) [2],also measured
"NC1(C(=O)O)CCc2cc(C(=O)O)ccc21 (racemic) [AIDA, (RS)-1-Aminoindan-1,5-dicarboxylic acid]",greater than those treated with vehicle and chloro-APB only,,"efficacy in combination therapy (overall conclusion) ([1]; reserpine-treated rats, combination with chloro-APB or quinpirole): particularly effective"
"CC(N)(COP(=O)(O)O)C(=O)O (racemic) [MSOP, (RS)-alpha-Methylserine-O-phosphate]",greater than those treated with vehicle and chloro-APB only,,
"CC[C@](N)(CCC(=O)O)C(=O)O [EGLU, (2S)-alpha-Ethylglutamic acid]",,,"mobility (locomotion) ([1]; reserpine-treated Sprague-Dawley rats, antagonist 1 mg/kg plus quinpirole 0.1 mg/kg, one hour, versus vehicle plus quinpirole (FIG. 2)): greater mobility than those treated with vehicle and quinpirole only"
N[C@@H](Cc1ccc(O)c(O)c1)C(=O)O [L-DOPA],,good anti-parkinsonian action,
"Cc1cccc(C=Cc2ccccc2)n1 [SIB-1893, 2-Methyl-6-(2-phenylethenyl)pyridine]",,good anti-parkinsonian action; also recorded: as effective as L-DOPA alone in reversing parkinsonism,"L-DOPA-induced dyskinesia ([2]; L-DOPA 8 mg/kg plus SIB-1893 10 mg/kg versus vehicle plus L-DOPA, p<0.05 (FIG. 4)): significantly less severe L-DOPA-induced dyskinesia"
